From patent US20240390434A1, “PROBIOTIC ENHANCERS AND USES THEREOF” (Blis Technologies Limited, priority 2021, published 2024)

Tested on: indicator strains
Assay: Deferred antagonism assay, producer S. salivarius K12: total strains inhibited
Format: cell-based
Conditions: K12
Description: 1-2 producer strain colonies were transferred from a stock plate into 900 μL of suspension solution using a fresh cotton swab. Following this, suspensions were vortexed, and a sample was inoculated onto solid culture media using a fresh cotton swab. The inoculation was a streak that runs diametrically across the agar plate in a 1.5 cm wide strip. The plate was then incubated. Following incubation all visible colonies were removed by swabbing them from the agar surface. The plates were then treated with chloroform by dispensing 2 ml of chloroform onto 4 cm×4 cm piece of cloth and sealing the inverted agar plate on top for 30 minutes. The plates were then air dried for 30 minutes following chloroforming. 1-2 indicator strain colonies were then transferred from a stock plate into complementary suspension solution. The suspensions were then vortexed, and a sample was inoculated onto the same agar surface. These samples were streaked in a perpendicular direction to the initial producer streak.
Each indicator streak was prepared with fresh a suspension containing cells from a corresponding stock plate containing the indicator strain of interest. Indicator strains suspension samples were transferred using a fresh cotton swab. Results were measured by qualitatively reviewing the subsequent (if any) sizes of the zones of inhibition (ZOI) of indicator strain colony growth. A positive result is when there is a distinctive reduction or complete inhibition of indicator colony growth on the culture medium.
CABCa agar plates containing various concentrations of saccharide were prepared according to the methods described in Method 1. Producer strains were transferred from stock agar plates into 900 μL THB using a fresh cotton swab. A plastic spread plater was cut to approximately 1.2 cm width and then dipped into ethanol and left to air dry to ensure sterility. A 100 μL sample of the producer strain suspension was then dispensed onto the agar surface in a straight line running diametrically across the agar surface in (approximately) 20 μL spots. The spots were spaced approximately 1.5 cm apart from each other. The plastic spreader was then used to evenly distribute the spots across the agar surface in a 1.5 cm wide strip. This step was taken to ensure an even producer streak was inoculated onto the agar surface and provided an approximate measure of the initial inoculum concentration. Separate plastic spreaders were used for samples containing different producer strains. The samples were left to soak into the agar surface until there was no visible liquid remaining on the agar surface (approximately 20 minutes). Following producer streak preparations, the deferred antagonism assay protocol was followed as per Method 2. Results were recorded by measuring the size of the zone of inhibition (ZOI) in mm.
A dose response assay was carried out according to method 3 above, except a 1.2 cm streak was used. For the individual saccharide testing the pH of the producer streak was adjusted after the growth of producer to change the acidic conditions.
A deferred antagonism assay was conducted using K12 or M18 raw ingredient suspended in Todd Hewitt broth (THB). This was spread as a 1.2 cm streak containing approximately 1-2×10^6 cfu down the middle of a CABCa control or CABCa galactose supplemented test plate. After 18 hrs growth at 37° C. with 5% CO2, bacterial growth was removed, and the pH of the agar in the initial streak was measured and adjusted to a pH of 6.5-7.5 using 0.5M sodium carbonate pH11 before sterilizing the agar surface using chloroform vapor. Bacterial test strains were suspended in i-THB before being swabbed across the plates perpendicular to the initial streak. Plates were incubated for a further 18 hrs incubation at 37° C. with 5% CO2 before measuring (mm) any zones of inhibition for each test strain, […]

In the case of `O=C(CO)[C@@H](O)[C@H](O)[C@H](O)CO` [Fructose, D-(−) Fructose, reference compound], the Total strains inhibited (saccharide 3.3% w/v) is reported as 0/3 and the Total strains inhibited (saccharide range 0.83%-3.3% w/v) is reported as 0/3.
